Read-outs that look alike come from different tables or passages of the source.
Legend:
[1] = tested on: glaucomatous beagles; assay: IOP changes in glaucomatous beagles after travoprost instillations; format: in vivo
Source text: (§1) A pharmacodynamic study performed in twelve glaucomatous beagles evaluated the changes in intraocular pressure (IOP) and pupil diameter (PD) after instillations of 0.033, 0.0033, 0.001, 0.00033, and 0.0001% travoprost in multiple single-dose studies.

[2] = tested on: glaucomatous beagles; assay: Pupil diameter changes in glaucomatous beagles after travoprost instillations; format: in vivo
Source text: as §1

[3] = tested on: subjects with primary open-angle glaucoma or ocular hypertension; assay: IOP in subjects with primary open-angle glaucoma or ocular hypertension; format: in vivo, human; settings: patients
Source text: Patient population was controlled ocular hypertension or primary open-angle glaucoma; open, normal anterior chamber angles on gonioscopy. Primary outcomes were as follows. Diurnal IOP (8 AM, 10 AM, 4 PM) at Baseline. Day 14. Day 42. Day 85, Month 4 and Month 6. Intraocular pressure at 8 AM at Day 1. Day 3. Day 7 and Day 28. Safety evaluations, including adverse event reporting, ocular comfort, global tolerance, BCVA, endothelial cell counts, and pachymetry.

[4] = tested on: lasered hypertensive cynomolgus monkeys; settings: cited from earlier work

With CC(C)OC(=O)CCC/C=C\C[C@@H]1[C@@H](/C=C/[C@@H](O)COc2cccc(C(F)(F)F)c2)[C@H](O)C[C@@H]1O [travoprost] the “effect on IOP” value ([1]; 0.0001% concentration) was “limited IOP changes”, the “effect on IOP” value ([1]; concentrations of 0.00033, 0.001, and 0.0033%, single-dose instillation) was “significantly lowered” and the “dosage strength that maintained IOP reduction for 24 hours” value ([1]; dog, in vivo) was ≥ 0.001%. The PD changes ([2]; 0.0001% concentration) was “still significant”, the “pupil constriction maintained for 24 hours” value ([2]; all dosage strengths) was “no dosage strength maintained pupil constriction for 24 hours” and the “effect on pupil diameter (PD)” value ([2]; concentrations of 0.00033, 0.001, and 0.0033%) was “significantly lowered”. For the same compound, the “onset of decrease in mean IOP following administration” value [3] was “as early as two days”, the IOP lowering ([4]; continued twice a day dosing at 0.1 μg, after doses 4 and 5) was “significant lowering of IOP” and the IOP lowering ([4]; single dose of 0.1 μg) was “did not significantly lower IOP”. The IOP reduction ([4]; single dose of 0.3 μg) was 19-26%.

From patent publication US20240165018A1, “HYDROGEL IMPLANTS FOR LOWERING INTRAOCULAR PRESSURE” (OCULAR THERAPEUTIX, INC., priority 2019, published 2024)
